The values below come from PubChem BioAssay AID755 (The Scripps Research Institute Molecular Screening Center, 2007).

Each structure is given as a SMILES string. Calls of active or inactive are those of the source.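 The calls were made as follows: active = IC50 at or below 10 micromolar; inactive = IC50 above 10 micromolar.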

Chain of 5-hydroxytryptamine receptor 1A (Homo sapiens) (P08908 whole entry, looked up): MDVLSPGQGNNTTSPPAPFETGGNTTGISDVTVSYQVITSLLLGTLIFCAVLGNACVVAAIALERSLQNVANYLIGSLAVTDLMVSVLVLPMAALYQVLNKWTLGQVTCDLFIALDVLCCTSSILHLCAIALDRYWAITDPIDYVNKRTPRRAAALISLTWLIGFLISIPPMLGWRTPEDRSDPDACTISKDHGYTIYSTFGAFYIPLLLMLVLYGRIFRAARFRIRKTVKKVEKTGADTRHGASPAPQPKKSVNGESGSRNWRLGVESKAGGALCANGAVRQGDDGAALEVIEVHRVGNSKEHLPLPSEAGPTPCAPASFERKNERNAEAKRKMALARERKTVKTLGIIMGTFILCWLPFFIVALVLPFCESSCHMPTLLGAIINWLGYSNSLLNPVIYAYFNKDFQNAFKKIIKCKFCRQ

The assay concerns the target 5-hydroxytryptamine receptor 1A (Homo sapiens) (UniProt P08908). Put plainly: human 5-HT1A antagonist potency, dose response, cell-based, CHO, Ga15 NFAT-bla reporter (AID 755). Particulars: CHO 5-HT1A Ga15 NFAT-BLA reporter, FRET antagonist.
Take `COc1ccc(N2C(=O)CC(NCc3ccncc3)C2=O)cc1` (stereo not given): the IC50 was > 40 µM (inactive). Regarding `COc1cc2c(cc1OC)C1=C(C#N)CC/C(=N\S(=O)(=O)c3ccccc3)N1CC2`, the IC50 is > 40 µM (inactive). Consider `CSc1ccccc1N=CC1=C(O)CC(C)(C)CC1=O`, for which the IC50 was 1.88 µM.

For `CC(=O)Oc1ccc(N2C(=O)C3C(C2=O)C2(C)C=CC3(C)O2)cc1` (stereo not given), the IC50 was 7.33 µM. Consider `O=C1C2C3C=CC(CO)(O3)C2C(=O)N1c1ccc(-c2ccccc2)cc1` (stereo not given), for which the IC50 result is “inactive”.
